Results from patent US10702542B2, “Glycan therapeutics and related methods thereof” (priority 2015, dated 2020).

Assays:
[1] = tested on: Clostridium difficile (strain VPI 10463 (ATCC-43255)); assay: Mouse model of Clostridium difficile infection: disease-associated phenotypes; type: in vivo, mice (female C57BL/6)
Description: This experiment was conducted to analyze the effects of glycan therapeutics in a mouse model of Clostridium difficile infection (Chen et al, 2008, A Mouse Model of Clostridium difficile—Associated Disease. Gastroenterology 135(6), 1984-1992). In this model, normal mice were exposed to an antibiotic regimen that renders them susceptible to C. difficile infection and disease symptoms, similar with respect to their development and manifestation of human clinical disease. In humans, the disease is most often the result of exposure to broad spectrum antibiotics which is thought to result in intestinal dysbiosis and subsequent increased colonic colonization with C. difficile. The increased bio-burden of C. difficile leads to toxin production by the bacterium and colonic inflammation. Clinical manifestations in humans include diarrhea, weight loss, intestinal inflammation, fever and dehydration. The clinical incidence of C. difficile infection and disease is about 750,000 cases per year in the US.
(§1) Mice (female C57BL/6, 8-10 weeks old, 16-18 grams each; Harlan Laboratories, Indianapolis, Ind.) were housed in groups of 3 per cage, with 4 cages per treatment group. Mice were exposed to a cocktail of antibiotics in their drinking water for a period of 9 days, starting on day −14, fourteen days before Clostridium difficile challenge on day 0. The antibiotic cocktail consisted of 1% glucose, kanamycin (0.5 mg/ml), gentamicin (0.044 mg/ml), colistin (1062.5 U/ml), metronidazole (0.269 mg/ml), ciprofloxacin (0.156 mg/ml), ampicillin (0.1 mg/ml) and vancomycin (0.056 mg/ml). Three days prior to Clostridium difficile challenge (on Day −3), mice received a single dose of clindamycin (10 mg/kg) in a volume of 0.5 mL distilled water by oral gavage (PO) (see Table 10). All chemicals were purchased from Sigma-Aldrich Corp. (St. Louis, Mo.). On day 0, mice were challenged with Clostridium difficile (strain VPI 10463 (ATCC-43255)) spores at approximately 4.5 log10 spores per mouse, PO, in a dose volume of 0.5 mL distilled water.
Disease-associated phenotypes were recorded for a duration of ten days starting on the day of Clostridium difficile challenge (on day 0) through day 10. The phenotypes, including lethargy, hunched posture and ruffled coat, wet tail/abdomen and hypothermia were scored from 0 to 4: Normal=0; Lethargic=1; Lethargic+Hunched=2; Lethargic+Hunched+Wet tail/abdomen (diarrhea)=3; and Lethargic+Hunched+Wet tail/abdomen+Hypothermic=4. Death (day 0 to day 10 or 11) and weight (day 1 to day 7 and day 10) of the animals was also monitored and recorded.
A treatment's ability to protect animals from death through day 6 in these experiments indicates disease prevention, e.g., in a human.
Effects of treatments was assessed by comparing the disease-associated phenotypes in glycan-treated, untreated (plain water) and vancomycin-treated groups. FOS is a commercially-available, non-digestible fructooligosaccharide.

[2] = tested on: gut microbiota; assay: Mouse model of Clostridium difficile infection: shifts in microbial gut constituents (16S rRNA); type: in vivo, mice (female C57BL/6); details: Day 6, FIG. 13; predicted from 16S rRNA sequencing using PICRUST
Description: as §1
To determine how the gut microbiota composition responds to treatment with glycan therapeutics, 16S rRNA sequencing of fecal pellets on the V4 variable region using standard protocols from the Earth Microbiome Project was performed (www.earthmicrobiome.org/emp-standard-protocols/). […]

[3] = vancomycin PO gavage QD days 0 to 4

With CN[C@H](CC(C)C)C(=O)N[C@H]1C(=O)N[C@@H](CC(N)=O)C(=O)N[C@H]2C(=O)N[C@H]3C(=O)N[C@H](C(=O)N[C@H](C(=O)O)c4cc(O)cc(O)c4-c4cc3ccc4O)[C@H](O)c3ccc(c(Cl)c3)Oc3cc2cc(c3O[C@@H]2O[C@H](CO)[C@@H](O)[C@H](O)[C@H]2O[C@H]2C[C@](C)(N)[C@H](O)[C@H](C)O2)Oc2ccc(cc2Cl)[C@H]1O [Vancomycin, vancomycin] the “animal survival versus animals treated with water (vehicle)” value ([1]; Kaplan-Meier, FIG. 10) was “significant difference”, the “clinical score of survivors” value ([1]; score 0 to 4, after end of treatment, days 7 to 10/11) was “above 0” and the “animals died by day 10” value [1, 3] was 17%. For the same compound, the “animals survived to day 7” value [1, 3] was 100%, the “clinical signs on day 10” value [1, 3] was “exhibited clinical signs” and the “predicted functional potential of the gut microbiome to convert primary bile acids to secondary bile acids” value [2] was “not observed”.
